In US20240391930A1, “SPIROCYCLIC BICYCLIC MODULATORS OF CHOLESTEROL BIOSYNTHESIS AND THEIR USE FOR PROMOTING REMYELINATION” (GENENTECH, INC., priority 2021, published 2024) one finds Ki data, which are given here for 5 molecules.

In general, Ki refers to a measure of affinity in units of concentration, obtained from inhibition or displacement. High values mean lower affinity, low ones higher affinity.

Test [1] addresses T1, human EBP (Homo sapiens, UniProt Q15125).
T1 construct: expressed in transfected cells; host or cells: human embryonic kidney 293 cells
Briefly: hEBP SPA competition binding assay ([3H]-Ifenprodil). How it is done: Membrane preparation: To examine compound binding affinity to EBP, human EBP was overexpressed in human embryonic kidney 293 cells. Cell pellet was lysed in 10 times weight binding buffer (50 mM Tris, 5 mM MgCl2, 0.1 mM EDTA, lx protease inhibitor cocktail, pH 7.5) on ice by using a dounce homogenizer. The solution was centrifuged at 25,000 g for 50 min at 4° C. The membrane pellet was re-suspended in binding buffer and run through a 25⅝ gauge needle. After checking the concentration by Bradford assay, the whole cell membrane solution was adjusted to 20 mg/mL and stored at −80° C.
This binding solution was centrifuged at 400 g for 5 minutes to collect the bead/membrane mixture. After re-suspending the pellet in binding buffer at the same calculated volume with 0.01% BSA (Sigma A1933), the bead/membrane mixture was added in 384-well low-binding surface plate (PerkinElmer Cat #6057480) at 25 µl/well. Radioligand at different concentrations with and without the non-radio-labeled same ligand 5 uM (for nonspecific and total signal, respectively) was added to bring final volume to 50 µl/well with DMSO concentration at 0.1%. At equilibrium (3 hours after ligand addition), radiometric signal CPM was counted by using a Microbeta2 microplate counter (Perkinelmer).
A pre-incubated bead/membrane mixture was added in compound plate at 0.3 mg beads and […] membrane per well. […] At equilibrium (3 hours after ligand addition), radiometric signal was counted as described above. The percentage inhibition of compound at each testing concentration was calculated by normalizing each condition's CPM readout to full block (5 uM non-radiolabeled ligand) and non-block (DMSO) control conditions. Compound binding inhibition IC50 was determined by nonlinear regression fitting of percentage inhibition plot against compound concentration. Compound Ki was calculated from the equation Ki=IC50/(1+[L]/Kd), which [L] was radioligand concentration used in assay. All tests had N bigger or equal to 2.

Test [2] deals with T2, human emopamil binding protein and human 7-dehydrocholesterol reductase (hEBP-DHCR7) (Homo sapiens, UniProt Q15125).
T2 construct: expressed in transfected cells; host or cells: HEK 293 cells, transient transfection with 2 DNA constructs
Briefly: hEBP-DHCR7 radioligand filtration binding assay. The settings on record: membranes of HEK293 co-expressing hEBP and DHCR7; [3H] 2-thia-6-azaspiro[3.4]octane radioligand; 8 doses 0.06 to 5000 nM. Put shortly: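 Membranes from HEK293 cells transiently co-expressing human EBP and DHCR7 (10 μg/well) incubated 3 h at 22 °C with tritiated 2-thia-6-azaspiro[3.4]octane dioxide radioligand (25 nM stock addition) and compound at 0.06–5000 nM final. Bound ligand collected on PEI-treated GF/B filters, scintillation-counted. IC50 by Hill fit; reported as Ki.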

T1 sequence (Q15125 whole entry): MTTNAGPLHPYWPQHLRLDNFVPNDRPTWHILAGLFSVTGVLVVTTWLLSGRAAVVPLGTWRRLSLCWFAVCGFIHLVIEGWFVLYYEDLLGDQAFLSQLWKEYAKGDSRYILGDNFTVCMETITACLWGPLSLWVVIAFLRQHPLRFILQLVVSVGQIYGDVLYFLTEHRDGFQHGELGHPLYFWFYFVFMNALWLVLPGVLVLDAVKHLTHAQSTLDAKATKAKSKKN
T2 sequence (Q15125 whole entry): as above

As to `CC(C)n1nc(-c2cncc(C(F)(F)F)c2)cc1[C@H]1[C@@H]2C[C@H](N3CC4(C3)CS(=O)(=O)C4)C[C@@H]21` (single isomer, unassigned) [Compound 99*], the Ki worked out at 58 nM in test [1] and 48 nM in test [2].
Take `CC(C)n1nc(-c2cncc(C(F)(F)F)c2)cc1[C@H]1[C@@H]2C[C@H](N3CCC4(C3)CS(=O)(=O)C4)C[C@@H]21` (single isomer, unassigned) [Compound 4]: the Ki in test [1] worked out at 31 nM; in test [2] it was 14.5 nM.
As to `CC(C)n1nc(-c2ccnc(C(F)(F)F)n2)cc1[C@H]1[C@@H]2C[C@H](N3CCC4(CC3)CS(=O)(=O)C4)C[C@@H]21` (single isomer, unassigned) [Compound 50], the inhibition constant Ki came out at 18 nM in test [1] and 49 nM in test [2].
For `CC(C)n1nc(-c2cncc(C(F)(F)F)c2)nc1[C@H]1[C@@H]2C[C@@H](N3CCC4(C3)CS(=O)(=O)C4)C[C@@H]21` (single isomer, unassigned) [Compound 16], the inhibition constant Ki in test [1] came to 20 nM; in test [2] it was 21 nM.
`C=C(c1cc([C@H]2[C@@H]3C[C@H](N4CCC5(C4)CS(=O)(=O)C5)C[C@@H]32)n(C(C)C)n1)C(F)(F)F` [Compound 31, 6-((1R,3r,5S,6r)-6-(1-Isopropyl-3-(3,3,3-trifluoroprop-1-en-2-yl)-1H-pyrazol-5-yl)bicyclo[3.1.0]hexan-3-yl)-2-thia-6-azaspiro[3.4]octane 2,2-dioxide]: the values for the inhibitory constant (Ki) in test [1] and in test [2] were 37 nM and 19.2 nM, respectively.
